The test system of series [1] is healthy mouse red blood cells. The following applies: cited from earlier work; for hemolysis rate: reported in previous research, ref Zhou et al., 2021. From the text:
Escherichia coli (E. coli) infection and LPS-induced inflammation are still of severe threat to human health. With the increasing problem of antibiotic resistance, there is a desperate need to develop new approaches to solve the problem.

The test system of series [2] is E. coli ATCC25922. The method, then:
The MIC values of peptides against E. coli ATCC25922 were determined by the microtiter broth dilution method. The bacteria were grown to the mid-logarithmic phase and diluted into the Luria-Bertani (LB) broth at 1 × 10^5 CFU/mL. […] Polymyxin and the sterile aqua distillate were tested as control. All assays were performed in triplicate.

The test system of a further series is pepsin and trypsin. Briefly: Protease stability, pepsin and trypsin stated together. The method, then: The untreated peptides and buffer solution were used as control. […] All assays were carried out in triplicate.
Series [3] relates to murine RAW264.7 macrophage cells. As to the method: The performance of the Cell Counting Kit-8 (CCK-8) assay was applied to investigate the effect of peptides on the viability of murine RAW264.7 macrophage cells and Vero cells in accordance with the previous method ([Zhou et al., 2021]). Cells (2.5 × 10^4 cells/well) were added into 96-well plates and incubated at 37°C in a humidified 5% CO2 environment for 24 h. Then various concentrations (0.15–20 μg/mL) of peptides were mixed with cells. Sterile aqua distillate was used as control. Eventually, 10 μL WST-8 solutions were added into each well. After 4 h of incubation at 37°C, a microplate reader was applied to measure the absorbance of each sample at 460 nm. The following formula was used to calculate cell viability: Cell viability (%) = OD 460 nm of treated sample/OD 460 nm of control × 100%.

Series [4] concerns RAW264.7 cells and Vero cells. Briefly: Cytotoxicity, CCK-8 assay, RAW264.7 and Vero stated together. The note with it: 128 μg/mL; range over Figures 1D,E (RAW264.7 and Vero). As to the method: Cells (2.5 × 10^4 cells/well) were added into 96-well plates and incubated at 37°C in a humidified 5% CO2 environment for 24 h. […] Sterile aqua distillate was used as control. Eventually, 10 μL WST-8 solutions were added into each well. After 4 h of incubation at 37°C, a microplate reader was applied to measure the absorbance of each sample at 460 nm. The following formula was used to calculate cell viability: Cell viability (%) = OD 460 nm of treated sample/OD 460 nm of control × 100%.
In general terms: Tetrazolium dyes change colour on reduction, which living cells bring about.

For series [5], the system named is healthy mouse red blood cells. Kind of series: Hemolysis. The note with it: mouse red blood cells 8% v/v, PBS pH 7.4, 37°C, 1 h, OD540, three replicates. The method, then: Hemolytic activity was estimated by determining hemoglobin released from healthy mouse red blood cells. Blood cells were washed three times in sterile PBS (10 mM, pH 7.4) and centrifuged at 1500 rpm for 5 min at 4°C. […] Afterward, the mixtures were incubated at 37°C for 1 h and centrifuged at 1500 rpm for 5 min. Ultimately, the absorbance of supernatants was measured at 540 nm. PBS and 0.1% Triton X-100 were used as the negative and the positive control, respectively. Hemolysis (%) = [(OD540 nm of the treated sample-OD540 nm of the negative control)/ (OD540 nm of positive control-OD540 nm of negative control)] × 100%.

A further series has as its target pepsin (Sus scrofa, UniProt P00791). Briefly: Protease stability (MIC after incubation with pepsin). The series is classed as in vitro ADME. The note with it: pepsin 3,000 U/mg, pH 2.0, 4 h, 37°C; peptide:protease 10:1 w/w (320 and 32 μg/mL); read-out MIC; triplicate. As to the method: All assays were carried out in triplicate.
The subject of series [6] is murine RAW264.7 macrophage cells. The note with it: 128 μg/mL; cell line not given; ref Zhou et al., 2021; cited from earlier work. As to the method:
The toxicity of peptides to mouse eukaryotic cells, macrophagocyte RAW 264.7 and Vero cells was determined.

The conditions of series [7]: ref Zhou et al., 2021; cited from earlier work. From the text:
As essential components of innate immunity, antimicrobial peptides (AMPs) contribute to the first line of defense against infections. […] However, its ant ...

The subject of series [8] is E. coli ATCC25922. Kind of series: Development of resistance by serial passaging (MIC assay). The series is classed as cell-based, Escherichia coli. The note with it: 11 serial passages of E. coli ATCC25922, inoculum from 1/4 MIC well, 11 days. As to the method: The development of resistance against E. coli ATCC25922 of these peptides was performed by MIC assay. Mid-log phase of bacteria (1 × 10^5 CFU/mL) (90 μL/well) was added to 10 μL peptides solution (128, 64, 32, 16, 8, 4, 2, 1, 0.5, 0.25 μg/mL). Polymyxin were used as control. After incubation at 37°C for 16–18 h, bacteria form 1/4 MIC well were used to inoculate in fresh culture. The MIC values were continually determined as described above. The serial passaging was repeated for 11 days.

Values after ≈ are worked out from the molar mass of the structure shown. Where two headings read alike, the source gives them in different places. Where a SMILES comes first, the peptide text is derived from it. [ ]: non-standard residue; d: D form.

By MIC is commonly meant the lowest concentration that inhibits growth of the organism. High values mean weaker potency, low ones greater potency.

pepsin, sequence (P00791 60-385): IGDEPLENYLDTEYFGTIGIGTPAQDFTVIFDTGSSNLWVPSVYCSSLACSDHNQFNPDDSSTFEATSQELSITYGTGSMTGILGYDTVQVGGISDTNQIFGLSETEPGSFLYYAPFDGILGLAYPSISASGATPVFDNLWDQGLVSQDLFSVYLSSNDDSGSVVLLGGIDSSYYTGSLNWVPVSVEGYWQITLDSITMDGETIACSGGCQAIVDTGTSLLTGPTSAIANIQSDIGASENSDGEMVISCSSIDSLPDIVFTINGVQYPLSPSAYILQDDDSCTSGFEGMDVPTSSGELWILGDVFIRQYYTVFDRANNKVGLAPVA

As to `CC(C)C[C@H](NC(=O)[C@H](CCCNC(=N)N)NC(=O)[C@@H](N)C(C)C)C(=O)N[C@@H](CCCNC(=N)N)C(=O)N[C@@H](Cc1c[nH]c2ccccc12)C(=O)N[C@@H](Cc1c[nH]c2ccccc12)C(=O)N[C@@H](CCCNC(=N)N)C(=O)N[C@@H](CCCNC(=N)N)C(=O)N[C@@H](CCCNC(=N)N)C(=O)N[C@@H](Cc1c[nH]c2ccccc12)C(=O)N[C@@H](CCCNC(=N)N)C(=O)N[C@@H](CCCNC(=N)N)C(N)=O` [1018M] (H-VRLRWWRRRWRR-NH2), the hemolysis in [1] was 0%. Besides, the MIC against E. coli ATCC25922 [2] (ATCC25922) is 8 µg/mL (≈ 4.25 µM). In addition, the “decline of anti-E. coli ability after exposure to pepsin and trypsin” value (“decline of anti-E. coli ability” below) in the series on pepsin and trypsin stood at 4 times.
The compound `CC(C)C[C@@H](NC(=O)[C@@H](CCCNC(=N)N)NC(=O)[C@H](N)C(C)C)C(=O)N[C@H](CCCNC(=N)N)C(=O)N[C@H](Cc1c[nH]c2ccccc12)C(=O)N[C@H](Cc1c[nH]c2ccccc12)C(=O)N[C@H](CCCNC(=N)N)C(=O)N[C@H](CCCNC(=N)N)C(=O)N[C@H](CCCNC(=N)N)C(=O)N[C@H](Cc1c[nH]c2ccccc12)C(=O)N[C@H](CCCNC(=N)N)C(=O)N[C@H](CCCNC(=N)N)C(N)=O` [D1018M] (H-[dV][dR][dL][dR][dW][dW][dR][dR][dR][dW][dR][dR]-NH2) gave an MIC against E. coli ATCC25922 [2] (ATCC25922) of 4 µg/mL (≈ 2.13 µM). In addition, in the series on pepsin and trypsin, the “decline of anti-E. coli ability” value amounted to 4 times; the “increase of resistance against tested proteases” value is on record as 2–4 times. For the same compound, the “safe concentration of murine macrophage cells” value in series [3] was 4 times of MIC.
In the case of `CC[C@@H](C)[C@@H](NC(=O)[C@@H](CCCNC(=N)N)NC(=O)[C@H](NC(=O)[C@@H](C)NC(=O)[C@H](NC(=O)[C@H](NC(=O)[C@@H](CC(C)C)NC(=O)[C@@H](CCCNC(=N)N)NC(=O)[C@H](N)C(C)C)[C@H](C)CC)C(C)C)C(C)C)C(=O)N[C@H](Cc1c[nH]c2ccccc12)C(=O)N[C@H](CCCNC(=N)N)C(=O)N[C@H](CCCNC(=N)N)C(N)=O` [D1018] (H-[dV][dR][dL][dI][dV][dA][dV][dR][dI][dW][dR][dR]-NH2), in series [4], the survival rate is reported as 81.7–87.6%. The hemolysis rate in series [5] (32 μg/mL) is 0.542%; in series [5] (64 μg/mL), 1.724%; in series [5] (128 μg/mL), 2.316%. Also, the “MIC against E. coli ATCC25922 after exposure to pepsin” value on pepsin turned out to be 4 µg/mL (≈ 2.6 µM). Besides, the “increase of resistance against tested proteases” value with pepsin and trypsin (abstract, D-peptides compared with L-parents) is listed as 2–4 times.
As for `CC[C@H](C)[C@H](NC(=O)[C@H](CCCNC(=N)N)NC(=O)[C@@H](NC(=O)[C@H](C)NC(=O)[C@@H](NC(=O)[C@@H](NC(=O)[C@H](CC(C)C)NC(=O)[C@H](CCCNC(=N)N)NC(=O)[C@@H](N)C(C)C)[C@@H](C)CC)C(C)C)C(C)C)C(=O)N[C@@H](Cc1c[nH]c2ccccc12)C(=O)N[C@@H](CCCNC(=N)N)C(=O)N[C@@H](CCCNC(=N)N)C(N)=O` [IDR-1018] (H-VRLIVAVRIWRR-NH2), in [6], the survival rate is 95.9%. The figures for the hemolysis rate in series [1] (32 μg/mL), in [1] (64 μg/mL) and in series [1] (128 μg/mL) were 0.386%, 2.136% and 2.651%, respectively. The “decline of anti-E. coli ability” value with pepsin and trypsin (4 h, 37°C, pepsin pH 2.0 and trypsin pH 8.0, 10:1 w/w, read-out MIC vs untreated peptide) was 2–4 times. In addition, in series [7], the “decrease of activity on exposure to inappropriate temperature, pH, or protease environment” value is 2–16 times.
Turning to Polymyxin [reference compound], the minimum inhibitory concentration (MIC) against E. coli ATCC25922 [2] (E. coli ATCC25922, LB broth, 1 × 10^5 CFU/mL, 37°C, 16–24 h, triplicate) was found to be 1.56 µg/mL. Besides, the “change of MIC after serial passages” value in the series with E. coli ATCC25922 [8] is “no change in MIC”.

These data come from paper PMC9751974 (Frontiers in Microbiology, 2022).
